Laboratory results reported in paper PMC11061835, “Elucidating the Mechanism of Metabolism of Cannabichromene by Human Cytochrome P450s” (Journal of Natural Products, 2024).
Where “and” joins values, the source holds several entries; their conditions need not be identical. Identical values can stand only once.

Key:
CYP2C9 = assay: CBC metabolism by CYP2C9; format: in vitro ADME, human
Method: To study the kinetics of CBC metabolism, concentration dependent metabolism of CBC was carried out in the presence of various CYPs using the following procedure. CYP2J2, CYP2C8, CYP2D6, CYP2C9, and CYP3A4 (final concentration 0.5 μM) were initially dissolved in lipid containing POPC:POPS (8:2 v/v) followed by addition of CPR (final concentration 0.6 μM) in 0.1 M potassium phosphate buffer (pH 7.4). CBC (5–80 μM) was added and incubated at 37 °C for 10 min. The reaction was triggered by NADPH and extracted using the exact sample protocol as mentioned in the HLM section.
Samples were analyzed with the 5500 QTRAP LC/MS/MS system (Sciex, Framingham, MA) in the Metabolomics Lab of Roy J. Carver Biotechnology Center, University of Illinois at Urbana–Champaign. Software Analyst 1.7.1 was used for data acquisition and analysis. The 1200 series HPLC system (Agilent Technologies, Santa Clara, CA) includes a degasser, an autosampler, and a binary pump. […] Multiple reaction monitoring (MRM) was used for quantitation: CBC m/z 315.1 → m/z 135.0; 1-acetoxy-6′,7′-dihydroxy-CBC (JM-I-73) m/z 349.1→ m/z 193.0; 1″-hydroxy-CBC (JM-I-66) m/z 331.1→ m/z 275.1; 6′,7′-epoxy-CBC (JM-I-27) m/z 331.1→ m/z 193.0; 7′,10′-ene-6′-hydroxy-CBC (JM-I-30) m/z 331.1→ m/z 193.0; 8′-hydroxy-CBC (JM-I-32) […]→ m/z 77.0. Internal standard EET-EA-d11 was monitored at m/z 375.2→ m/z 357.1.

[1] = test system: BV2 microglial cells, stimulated with lipopolysaccharide (LPS); assay: Nitric oxide determination (Griess assay) in LPS-stimulated BV2 cells; format: cell-based, mouse; settings: 0.1, 1.0, 2.5, 5.0 μM, vs cells treated with LPS only
Method: BV2 cells were a gift from Dr. Bob McCusker, University of Illinois. They were cultured and maintained at 37 °C in a humidified atmosphere of 95% air and 5% CO2 in high-glucose Dulbecco’s modified Eagle’s (DMEM) medium (Cat No. 10-013-CV, Corning Life Sciences), supplemented with 5% heat-inactivated fetal bovine serum (FBS), streptomycin (100 μg/mL), and penicillin (100 units/mL). Stocks of all the minor cannabinoids were made in ethanol and stored at −80 °C and diluted as required before cell treatment. A final concentration of ethanol was maintained at 0.1% in the cell culture experiments.
First, cell viability of BV2 cells was assessed after treatment with cannabinoids, at various concentrations (0.1, 1.0, 2.5, 5.0 μM), utilizing Cayman’s MTT assay. […] Once viability was determined, we measured the production of pro-inflammatory markers such as nitric oxide (NO), interleukin 6 (IL-6), tumor necrosis factor alpha (TNFα), and arginase 1 (Arg1) after BV2 cells were treated with minor cannabinoids and then stimulated with lipopolysaccharide (LPS) to evoke an inflammatory response.
BV-2 cells were plated at a density of 50 000 cells/well in a 24-well plate at 37 °C under controlled conditions. Cells were pretreated with the minor cannabinoids at various concentrations (0.1, 1.0, 2.5, 5.0 μM) for 4 h and then stimulated with LPS for 24 h. The culture medium was removed and saved for the determination of nitric oxide production through Cayman’s Griess assay. IL-6, TNFα, and Arginase 1 production was also determined utilizing collected medium. For the Greiss assay, in a 96-well plate, 100 μL of culture medium was used, and 50 μL of both Greiss reagent-1 and Greiss reagent-2 was added and incubated for 10 min. The absorbance was measured at 540 nm using a plate reader (SpectraMax iD5). The quantification was done using a calibration curve that was generated using the sodium nitrite standard obtained from Cayman Chemicals.

CYP3A4 = CYP3A4 (Homo sapiens, UniProt P08684); assay: Spectroscopic titration (Soret shift), CYP3A4; format: binding; parameters: His-tag; made in house; host or cells: E. coli DH-5α with pTGro7 plasmid; settings: CYP3A4, absence of CPR
Method: CBC binding to various CYPs was determined by analyzing the Soret shift from ∼417 to ∼390 nm. CBC (stock 10 mM) was dissolved in ethanol and titrated with different CYPs at room temperature. Buffer-exchanged CYP2J2, CYP2D6, CYP3A4, and CYP2C8 (concentrations of proteins were kept between 4 and 5 μM) were dissolved in 0.1 M phosphate buffer (pH = 7.4), and initial spectra were recorded from 200 to 800 nm with a prominent peak at 417 nm. The concentration of CBC was varied from 0 to 100 μM keeping the final concentration of substrate in EtOH not more than 1% in cuvette. 0–4 μL of stock CBC was added using a Hamilton syringe in both the sample and blank cuvettes. The mixture was incubated for 5 min at 37 °C, and absorbance spectra were recorded using a Cary Bio 300 UV–vis spectrophotometer (Agilent Technologies, Santa Clara, CA). To eliminate the background absorbance, we derived the final spectra by […].

CYP3A4 with CPR = target: T1, CYP3A4 with CPR (Homo sapiens, UniProt P08684); assay: NADPH activity assay, CYP3A4 with CPR; format: biochemical; settings: CYP3A4, CBC 50 μM vs substrate-free
T1 construct: His-tag; made in house; host or cells: E. coli DH-5α with pTGro7 plasmid (CYP)
Method: CYP-mediated NADPH oxidation was measured using kinetics mode in a Cary 300 UV–vis spectrometer (Agilent Technologies). 0.2 μM (final concentration) of CYP was taken in 0.1 M potassium phosphate buffer (pH 7.4) and incubated with 0.6 μM (final concentration) of CPR for 5 min with a reaction volume of 400 μL. The reaction was initiated with 200 μM of NADPH, and the absorption change was monitored over 10 min at 340 nm. The rate of NADPH consumption (or NADPH to NADP^+ conversion) was calculated by taking the molar extinction coefficient as 6.22 mM^–1 cm^–1 at 340 nm. To estimate the change in NADPH oxidation in the presence of CBC, both CYP and CPR were further incubated using CBC (final concentration 50 μM) for 5 min followed by measuring the change in absorbance at 340 nm as discussed earlier.

Chain of CYP3A4 (P08684 whole entry): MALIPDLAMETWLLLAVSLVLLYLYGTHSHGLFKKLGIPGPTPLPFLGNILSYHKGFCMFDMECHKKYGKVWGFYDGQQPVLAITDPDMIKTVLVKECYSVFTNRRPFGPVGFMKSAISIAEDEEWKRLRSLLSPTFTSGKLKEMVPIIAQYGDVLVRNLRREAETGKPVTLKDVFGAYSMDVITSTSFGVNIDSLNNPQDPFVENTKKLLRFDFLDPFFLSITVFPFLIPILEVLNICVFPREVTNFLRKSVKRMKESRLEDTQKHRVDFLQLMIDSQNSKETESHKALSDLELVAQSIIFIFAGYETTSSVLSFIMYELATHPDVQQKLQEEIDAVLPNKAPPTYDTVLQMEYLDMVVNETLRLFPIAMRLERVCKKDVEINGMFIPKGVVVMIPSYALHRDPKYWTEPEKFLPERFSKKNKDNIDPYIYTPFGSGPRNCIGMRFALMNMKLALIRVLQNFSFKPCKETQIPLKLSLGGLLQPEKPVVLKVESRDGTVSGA
T1 sequence (P08684 whole entry): as above
T1 sequence (P16435 whole entry partner): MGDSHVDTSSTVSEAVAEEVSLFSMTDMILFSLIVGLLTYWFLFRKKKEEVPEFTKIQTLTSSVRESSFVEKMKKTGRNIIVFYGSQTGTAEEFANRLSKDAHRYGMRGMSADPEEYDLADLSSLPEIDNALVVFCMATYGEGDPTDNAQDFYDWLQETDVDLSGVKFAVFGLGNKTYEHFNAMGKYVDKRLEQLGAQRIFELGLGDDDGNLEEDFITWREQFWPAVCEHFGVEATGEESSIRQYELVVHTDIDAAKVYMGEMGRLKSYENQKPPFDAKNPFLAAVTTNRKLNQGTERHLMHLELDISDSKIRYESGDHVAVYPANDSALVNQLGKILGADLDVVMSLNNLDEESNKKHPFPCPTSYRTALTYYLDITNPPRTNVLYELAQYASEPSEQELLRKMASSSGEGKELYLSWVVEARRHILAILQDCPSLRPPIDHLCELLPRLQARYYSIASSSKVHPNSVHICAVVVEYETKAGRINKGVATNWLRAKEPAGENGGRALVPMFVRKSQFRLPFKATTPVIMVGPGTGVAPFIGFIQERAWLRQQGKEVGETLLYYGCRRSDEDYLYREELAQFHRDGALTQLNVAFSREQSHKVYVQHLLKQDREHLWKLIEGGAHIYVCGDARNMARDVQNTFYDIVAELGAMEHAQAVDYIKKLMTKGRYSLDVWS

Structure (SMILES) | extent of 8′-hydroxy-CBC formation relative to 6′,7′-epoxy-CBC (CYP2C9) | effect on NO release/production [1] | ΔAmax (spin state change due to heme perturbation) (CYP3A4) | Kd (CYP3A4; read-out: Kd(app)) | percentage increase of NADPH consumption in the presence of CBC (CYP3A4 with CPR) [%]
CCCCCc1cc(O)c2c(c1)OC(C)(CC/C=C(\C)CO)C=C2 (centres unmarked) [8′-hydroxy-CBC] | approximately half | elevated levels | – | – | –
CCCCCc1cc(O)c2c(c1)OC(C)(CCC=C(C)C)C=C2 (centres unmarked) [CBC, Cannabichromene] | – | – | 0.11 ± 0.00 and ~0.11 | 9.57 µM and ~9.5 µM | ~15
